Series [1] has as its system Mus musculus. Briefly: Toxicity in mouse infected with blood schizonticidal Plasmodium berghei assessed as mortality at 640 mg/kg measured on days 2 to 5 after infection. Also on record: dose 640 mg/kg. The class given is organism-based. The conditions noted are these: in vivo.
The subject of series [2] is Plasmodium berghei. Briefly: Antimalarial activity against blood schizonticidal Plasmodium berghei infected in mouse assessed as change in host mean survival time at 320 mg/kg. It is filed as functional.
For series [3], the system named is Plasmodium berghei. Briefly: Antimalarial activity against blood schizonticidal Plasmodium berghei infected in mouse assessed as change in host mean survival time at 160 mg/kg. The class given is functional.
Series [4] concerns Plasmodium berghei. Briefly: Antimalarial activity against blood schizonticidal Plasmodium berghei infected in mouse assessed as change in host mean survival time at 40 mg/kg. The class given is functional.
Series [5] has as its system Plasmodium berghei. Briefly: Antimalarial activity against blood schizonticidal Plasmodium berghei infected in mouse assessed as change in host mean survival time at 20 mg/kg. It is filed as functional.
The test system of series [6] is Plasmodium berghei. Briefly: Antimalarial activity against blood schizonticidal Plasmodium berghei infected in mouse assessed as change in host mean survival time at 80 mg/kg. The class given is functional.
Series [7] has as its system Plasmodium cynomolgi. Briefly: Antimalarial activity against Plasmodium cynomolgi infected in rhesus monkey assessed as curative activity without disease relapses until 90 days at 0.25 mg/kg administered qd for 7 days via stomach tube. The class given is functional, organism-based. Further details: dose 0.25 mg/kg.
In series [8] the test system is Plasmodium cynomolgi. Briefly: Antimalarial activity against Plasmodium cynomolgi infected in rhesus monkey assessed as disease relapsing day at 0.25 mg/kg administered qd for 7 days via stomach tube. The class given is functional.
For series [9], the system named is Plasmodium cynomolgi. Briefly: Antimalarial activity against Plasmodium cynomolgi infected in rhesus monkey assessed as curative activity without disease relapses until 90 days at 1 mg/kg administered qd for 7 days via stomach tube. Also on record: dose 1 mg/kg. It is filed as functional, organism-based.
In series [10] the test system is Plasmodium cynomolgi. Briefly: Antimalarial activity against Plasmodium cynomolgi infected in rhesus monkey assessed as disease relapsing day at 1 mg/kg administered qd for 7 days via stomach tube. It is filed as functional.
The test system of series [11] is Plasmodium cynomolgi. Briefly: Antimalarial activity against Plasmodium cynomolgi infected in rhesus monkey assessed as disease relapsing day at 0.5 mg/kg administered qd for 7 days via stomach tube. It is filed as functional.
The subject of series [12] is Plasmodium cynomolgi. Briefly: Antimalarial activity against Plasmodium cynomolgi infected in rhesus monkey assessed as curative activity without disease relapses until 90 days at 0.125 mg/kg administered qd for 7 days via stomach tube. It is filed as functional, organism-based. Also on record: dose 0.125 mg/kg.
The subject of series [13] is Plasmodium berghei. Briefly: Antimalarial activity against blood schizonticidal Plasmodium berghei infected in mouse assessed as change in host mean survival time at 640 mg/kg. It is filed as functional.
Series [14] deals with Plasmodium cynomolgi. Briefly: Antimalarial activity against Plasmodium cynomolgi infected in rhesus monkey assessed as curative activity without disease relapses until 90 days at 0.75 mg/kg administered qd for 7 days via stomach tube. The class given is functional, organism-based. Also on record: dose 0.75 mg/kg.
In series [15] the test system is Plasmodium cynomolgi. Briefly: Antimalarial activity against Plasmodium cynomolgi infected in rhesus monkey assessed as disease relapsing day at 0.375 mg/kg administered qd for 7 days via stomach tube. It is filed as functional.
Series [16] relates to Mus musculus. Briefly: Toxicity in mouse infected with blood schizonticidal Plasmodium berghei assessed as mortality at 160 mg/kg measured on days 2 to 5 after infection. It is filed as organism-based. Further details: dose 160 mg/kg. The conditions noted are these: in vivo.
Series [17] has as its system Mus musculus. Briefly: Toxicity in mouse infected with blood schizonticidal Plasmodium berghei assessed as mortality at 320 mg/kg measured on days 2 to 5 after infection. The class given is organism-based. Further details: dose 320 mg/kg. The conditions noted are these: in vivo.
Series [18] relates to Plasmodium cynomolgi. Briefly: Antimalarial activity against Plasmodium cynomolgi infected in rhesus monkey assessed as curative activity without disease relapses until 90 days at 0.375 mg/kg administered qd for 7 days via stomach tube. It is filed as functional, organism-based. Further details: dose 0.375 mg/kg.
The test system of series [19] is Mus musculus. Briefly: Toxicity in mouse infected with blood schizonticidal Plasmodium berghei assessed as mortality at 80 mg/kg measured on days 2 to 5 after infection. The conditions noted are these: in vivo. The class given is organism-based. Further details: dose 80 mg/kg.
For series [20], the system named is Plasmodium berghei yoelii. Briefly: Antimalarial activity against sporozite stage of Plasmodium berghei yoelii infected in mouse assessed as host survival at 10 to 40 mg/kg, po. It is filed as functional, organism-based.
The subject of series [21] is Plasmodium berghei yoelii. Briefly: Antimalarial activity against sporozite stage of Plasmodium berghei yoelii infected in mouse assessed as host survival at 10 to 160 mg/kg, sc. The class given is functional, organism-based.
Series [22] has as its system Plasmodium berghei yoelii. Briefly: Antimalarial activity against sporozite stage of Plasmodium berghei yoelii infected in mouse assessed as curative activity at 160 mg/kg, po. Also on record: dose 160 mg/kg. The class given is functional, organism-based.
Series [23] has as its system Plasmodium cynomolgi. Briefly: Antimalarial activity against Plasmodium cynomolgi infected in rhesus monkey assessed as disease relapsing day at 0.125 mg/kg administered qd for 7 days via stomach tube. It is filed as functional.

Calls of active or inactive are those of the source. No cut-off for these calls is given here.

For `CCc1ccnc2c(NC(C)CCCNC(C)C)cc(OC)cc12` (configuration not stated), the Activity entry in the series with Mus musculus [1] is on record as “Toxic”. The MST in the series with Plasmodium berghei [2] was 10.5 days; in the series on Plasmodium berghei [3], 6.7 days; in the series on Plasmodium berghei [4], 2.3 days; in the series on Plasmodium berghei [5] it was -0.3 days; with Plasmodium berghei [6], 3.5 days.
As to `COc1cc(NC(C)CCCN)c2nccc(CCSc3ccc(F)cc3)c2c1` (configuration not stated), the outcome with Plasmodium cynomolgi [7] and with Plasmodium cynomolgi [9] was inactive. Moreover, the Time with Plasmodium cynomolgi [8] came out at 13 days; in the series on Plasmodium cynomolgi [10], 6 days; with Plasmodium cynomolgi [11], 7 days.
Consider `CCc1ccnc2c(NC(C)CCCN)cc(OC)cc12` (configuration not stated), for which the result in the series on Plasmodium cynomolgi [7] and with Plasmodium cynomolgi [12] was inactive. Also, the results for the Time in the series with Plasmodium cynomolgi [8], in the series on Plasmodium cynomolgi [10] and with Plasmodium cynomolgi [11] were 7 days, 37 days and 28 days, respectively. Besides, the MST with Plasmodium berghei [2] is 11.5 days; with Plasmodium berghei [3], 6.4 days; in the series on Plasmodium berghei [4] it was 3.8 days; with Plasmodium berghei [5], 2.8 days; in the series with Plasmodium berghei [6], 5.2 days.
As to `CCc1ccnc2c(NCCCCN)cc(OC)cc12`, the Activity entry in the series with Mus musculus [1] is on record as “Non-toxic”. Also, the MST worked out at 6.3 days in the series on Plasmodium berghei [2]; 2.9 days in the series with Plasmodium berghei [3]; 1.7 days in the series on Plasmodium berghei [4]; 7.9 days in the series with Plasmodium berghei [13]; 0.9 days in the series on Plasmodium berghei [5]; 2.1 days in the series on Plasmodium berghei [6].
As to `COc1cc(NC(C)CCCN)c2nccc(CCSc3ccc(Cl)cc3)c2c1` (configuration not stated), the MST in the series with Plasmodium berghei [2] was found to be 8.9 days; with Plasmodium berghei [3], 7.7 days; with Plasmodium berghei [4], 3.3 days; in the series with Plasmodium berghei [13], 14.6 days; in the series on Plasmodium berghei [5] it was 2.3 days; with Plasmodium berghei [6], 6.3 days.
As to `CCc1ccnc2c(NCCCCCCN(CC)CC)cc(OC)cc12`, the MST was 6.7 days with Plasmodium berghei [2]; 5.5 days with Plasmodium berghei [3]; 1.7 days in the series with Plasmodium berghei [4]; 7.9 days in the series on Plasmodium berghei [13]; 0.5 days in the series with Plasmodium berghei [5]; 3.3 days in the series on Plasmodium berghei [6].
`COc1cc(NC(C)CCCN)c2ncccc2c1` (configuration not stated) [PRIMAQUINE]: the Activity entry with Mus musculus [1], in the series with Mus musculus [16] and in the series on Mus musculus [17] was “Toxic” each time. Besides, the outcome in the series on Plasmodium cynomolgi [14] was Active. For the same compound, the Time with Plasmodium cynomolgi [15] and in the series with Plasmodium cynomolgi [11] was 11 days each time. In addition, the results for the MST in the series with Plasmodium berghei [4], in the series with Plasmodium berghei [5] and in the series on Plasmodium berghei [6] were 5 days, 4 days and 9.4 days, respectively. The outcome in the series on Plasmodium cynomolgi [18] was inactive.
In the case of `CCc1ccnc2c(NC(C)CCCN(CC)CC)cc(OC)cc12` (configuration not stated), the Activity result in the series on Mus musculus [1] and in the series with Mus musculus [17] was “Toxic” each time. In addition, the MST turned out to be 6.6 days in the series on Plasmodium berghei [3], 1.5 days with Plasmodium berghei [4], 1.1 days in the series with Plasmodium berghei [5] and 3.7 days in the series with Plasmodium berghei [6].
`C=Cc1ccnc2c(NC(C)CCCN)cc(OC)cc12` (configuration not stated): in the series with Plasmodium cynomolgi [7], the outcome was inactive. Moreover, the Activity entry with Mus musculus [1] and in the series on Mus musculus [17] was “Toxic” each time. Further, the Time worked out at 7 days in the series on Plasmodium cynomolgi [8], 24 days with Plasmodium cynomolgi [10] and 10 days in the series with Plasmodium cynomolgi [11]. Also, the MST turned out to be 7.7 days in the series with Plasmodium berghei [2]; 8.7 days in the series on Plasmodium berghei [3]; 1.7 days with Plasmodium berghei [4]; 1.1 days with Plasmodium berghei [5]; 5.9 days in the series with Plasmodium berghei [6].
For the compound `CCc1ccnc2c(NCCCCCCN)cc(OC)cc12`, the Activity result in the series on Mus musculus [19] and in the series with Mus musculus [16] was “Toxic” throughout. In addition, the MST with Plasmodium berghei [4] stood at 0.8 days; in the series with Plasmodium berghei [6] it was 4.8 days.
For the compound `CCc1ccnc2c(NCCCCCCN3CCN(CCO)CC3)cc(OC)cc12`, in the series with Mus musculus [1], the Activity result is “Toxic”. In addition, the MST in the series on Plasmodium berghei [2] was 4.1 days; in the series with Plasmodium berghei [3], 2.5 days; with Plasmodium berghei [4], 0.7 days; in the series with Plasmodium berghei [5], 0.1 days; with Plasmodium berghei [6] it was 2.7 days.
Consider `COc1ccc(SCCc2ccnc3c(NC(C)CCCN)cc(OC)cc23)cc1` (configuration not stated), for which the result in [20] and in series [21] was inactive. In addition, the MST with Plasmodium berghei [2] came to 6.1 days; with Plasmodium berghei [3] it was 2.7 days; in the series on Plasmodium berghei [4], 0.3 days; in the series with Plasmodium berghei [13] it was 7.5 days; in the series on Plasmodium berghei [5], 0.1 days; in the series with Plasmodium berghei [6], 2.1 days. The result in [22] was Active. For the same compound, in the series with Plasmodium cynomolgi [23], the Time was 9 days.

Values taken from ChEMBL document CHEMBL3227982, “Synthesis of some 4-substituted 8-amino-6-methoxyquinolines as potential antimalarials” (J Med Chem, 1979).
